Experimental data from US7572439B2, “Enzyme disruption of bacterial biofilms” (priority 2002, dated 2009).

Test system: SA5
Assay: Long-term leaching of lysostaphin from coated catheters
Type: cell-based, S. aureus
Procedure: Long-term Leaching of Lysostaphin. Ten lysostaphin-coated catheters (10 mg/ml coating concentration) were incubated with PBS for 2 hours at 37° C. The catheters were then washed and two of the ten lysostaphin coated catheters were incubated with 200 μl of a 5×10^4 CFU/ml solution of SA5 for 2 hours at 37° C. The effluent was streaked on to blood agar plates and incubated at 37° C. overnight. The rest of the catheters were incubated with fresh PBS and left at 37° C. overnight. The following day, all eight catheters were washed out and two of the catheters were incubated with bacteria as above. The other six catheters were again incubated with fresh PBS and left at 37° C. overnight. This procedure was repeated everyday for four days.

lysostaphin
log reduction in bacteria recovered vs uncoated catheters (10 mg/ml coated catheters, two-hour incubation with PBS): 2.8 log | log reduction in bacterial counts (PBS incubation 24 hours): 1.8 log | log reduction in bacterial counts (PBS incubation 48 hours): 1.5 log | log reduction in bacterial counts (PBS incubation 72 hours): 0.7 log | log reduction in bacterial counts (PBS incubation 96 hours): 0.3 log
